Values after ≈ are worked out from the molar mass of the structure shown.
Columns and labels:
[1] = system: Jurkat; experiment: Cytotoxicity against human Jurkat cells after 40 hrs bioluminescence assay; type: cell-based
[2] = system: Mus musculus; experiment: Neurotoxicity in ip dosed Swiss mouse assessed as drug level required for induction of tremor; type: toxicity, organism-based; settings: in vivo
[3] = Cell cycle arrest in temperature sensitive mouse FT210 cells assessed as accumulation at M phase; type: functional, cell-based
[4] = Induction of mutagenesis in microsomes assessed as drug level required by Ames assay; set-up: species or system Microsome
[5] = biological target: Rhodesain (Trypanosoma brucei rhodesiense, UniProt Q95PM0); experiment: Inhibition of […] after 5 mins by spectrofluorimetry
[6] = system: Trypanosoma brucei brucei; experiment: Antitrypanosomal activity against Trypanosoma brucei brucei 427-221a after 40 hrs by bioluminescence assay; type: functional, organism-based; settings: for IC50 / EC50: Trypanosoma brucei, 427-221a, 40 h
[7] = Induction of mutagenesis in Salmonella Typhimurium assessed as drug level required by Ames assay; type: toxicity; settings: salmonella enterica subsp. enterica serovar typhimurium
[8] = Inhibition of Trypanosoma brucei brucei recombinant cathepsin B assessed after 5 mins by spectrofluorimetry
[9] = Toxicity in ip dosed mouse; type: organism-based; settings: in vivo
[10] = Selectivity index, ratio of IC50 for human Jurkat cells to IC50 for Trypanosoma brucei brucei; type: toxicity, cell-based; settings: for selectivity ratio: Jurkat cells, read-out: Ratio IC50; for Ratio IC50: jurkat
[11] = system: Macrophomina phaseolina; experiment: Antimicrobial activity against Macrophomina phaseolina; type: functional; settings: read-out: ED50 (the source's name)
[12] = Cytotoxicity against chinook salmon CHSE-214 cells; type: cell-based; settings: Oncorhynchus tshawytscha
[13] = Cytotoxicity against rainbow trout RTS11 cells; type: cell-based; settings: Oncorhynchus mykiss
[14] = system: Macrophomina phaseolina; experiment: Antimicrobial activity against Rhizoctonia bataticola; type: functional; settings: read-out: ED50 (the source's name)
[15] = system: Tetrahymena pyriformis; experiment: Antiprotozoal activity against Tetrahymena pyriformis; type: functional, organism-based
[16] = system: Pythium aphanidermatum; experiment: Antimicrobial activity against Pythium aphanidermatum; type: functional; settings: read-out: ED50 (the source's name)
[17] = Inhibition of chymotrypsin-like activity of 20S proteasome activity
[18] = Toxicity in ip dosed ddY mouse; type: organism-based; settings: in vivo
[19] = system: HUVEC; experiment: Cytotoxicity against HUVEC; type: cell-based; settings: Homo sapiens
[20] = system: HeLa; experiment: Cytotoxicity against human HeLa cells; type: functional, cell-based
[21] = Inhibition of NADPH oxidase
[22] = Ciliostatic activity against human respiratory epithelium assessed as required active concentration; type: functional
[23] = system: Plasmodium falciparum; experiment: Antiparasitic activity against chloroquine-resistant Plasmodium falciparum K1; type: functional, organism-based
[24] = biological target: Acetolactate synthase catalytic subunit, mitochondrial (Saccharomyces cerevisiae S288c, UniProt P07342); experiment: Inhibition of Saccharomyces cerevisiae acetolactate synthase
[25] = organism: Homo sapiens; experiment: Induction of apoptosis in human HSC assessed as required active concentration; type: functional
[26] = Inhibition of PAF
[27] = system: Macrophage; experiment: Immunomodulatory activity in macrophage assessed as inhibition of phagocytosis; type: functional; settings: read-out: ED50 (the source's name)
[28] = system: Athelia rolfsii; experiment: Antimicrobial activity against Sclerotium rolfsii; type: functional; settings: Agroathelia rolfsii; read-out: ED50 (the source's name)
[29] = biological target: Mycothiol S-conjugate amidase (Mycobacterium tuberculosis, UniProt P9WJN1); experiment: Inhibition of Mycobacterium tuberculosis mycothiol-S-conjugate amidase
[30] = system: Rhizoctonia solani; experiment: Antimicrobial activity against Rhizoctonia solani; type: functional; settings: read-out: ED50 (the source's name)
[31] = Cytotoxicity against rainbow trout RTG2 cells; type: cell-based; settings: Oncorhynchus mykiss
[32] = system: A549; experiment: Cytotoxicity against human A549 cells; type: functional, cell-based
[33] = system: Globisporangium debaryanum; experiment: Antimicrobial activity against Pythium debaryanum; type: functional; settings: read-out: ED50 (the source's name)
[34] = system: jurkat; experiment: Activation of NF-kappaB in human jurkat cells assessed as active concentration required; type: cell-based
[35] = system: HEK293; experiment: Cytotoxicity against HEK293 cells; type: cell-based; settings: Homo sapiens
[36] = Selectivity index, ratio of EC50 for HEK293 cells to EC50 for Trypanosoma brucei brucei; type: toxicity, cell-based; settings: human, read-out: Ratio EC50
[37] = Inhibition of tubulin polymerization assessed as blockade of microtubule assembly at 250 uM; set-up: scale not given: the % may be the effect or the level left
[38] = system: Trypanosoma brucei rhodesiense; experiment: Antitrypanosomal activity against Trypanosoma brucei rhodesiense after 40 hrs by bioluminescence assay; type: functional
[39] = Inhibition of Su(var)3-9
[40] = biological target: Thioredoxin reductase 1, cytoplasmic (Homo sapiens, UniProt Q16881); experiment: Inhibition of thioredoxin reductase 1
[41] = system: MDA-MB-468; experiment: Cytotoxicity against human MDA-MB-468 cells; type: functional, cell-based
[42] = system: MCF7; experiment: Cytotoxicity against human MCF7 cells; type: functional, cell-based
[43] = Immunosuppression of mouse spleen lymphocytes; type: functional, tissue-based; settings: lymphocyte
[44] = Selectivity index, ratio of IC50 for rat L6 cells to IC50 for Trypanosoma brucei brucei
[45] = system: Trypanosoma brucei brucei; experiment: Antitrypanosomal activity against Trypanosoma brucei brucei at 1.25 ug/ml after 40 hrs by bioluminescence assay relative to control; type: functional

Sequence of Rhodesain (Q95PM0 whole entry): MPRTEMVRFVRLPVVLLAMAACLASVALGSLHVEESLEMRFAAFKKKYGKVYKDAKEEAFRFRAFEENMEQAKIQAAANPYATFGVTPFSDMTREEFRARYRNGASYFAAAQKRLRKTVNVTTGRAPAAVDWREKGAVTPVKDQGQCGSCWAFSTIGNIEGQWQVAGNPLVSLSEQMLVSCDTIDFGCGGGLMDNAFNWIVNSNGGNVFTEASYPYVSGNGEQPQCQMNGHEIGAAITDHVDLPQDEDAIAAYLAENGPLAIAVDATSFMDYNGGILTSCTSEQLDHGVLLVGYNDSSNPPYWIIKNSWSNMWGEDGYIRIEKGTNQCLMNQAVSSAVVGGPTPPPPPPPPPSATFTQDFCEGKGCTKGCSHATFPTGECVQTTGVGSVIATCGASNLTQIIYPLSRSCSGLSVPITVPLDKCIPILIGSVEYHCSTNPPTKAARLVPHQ
Sequence of Mycothiol S-conjugate amidase (P9WJN1 whole entry): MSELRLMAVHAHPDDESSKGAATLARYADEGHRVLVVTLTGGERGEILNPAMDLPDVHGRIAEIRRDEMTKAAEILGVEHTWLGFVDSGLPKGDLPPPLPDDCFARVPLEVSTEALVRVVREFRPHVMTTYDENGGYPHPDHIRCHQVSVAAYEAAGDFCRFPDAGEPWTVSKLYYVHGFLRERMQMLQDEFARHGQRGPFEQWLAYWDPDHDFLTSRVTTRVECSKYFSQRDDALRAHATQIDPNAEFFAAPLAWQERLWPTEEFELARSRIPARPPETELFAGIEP
Sequence of Thioredoxin reductase 1, cytoplasmic (Q16881 whole entry): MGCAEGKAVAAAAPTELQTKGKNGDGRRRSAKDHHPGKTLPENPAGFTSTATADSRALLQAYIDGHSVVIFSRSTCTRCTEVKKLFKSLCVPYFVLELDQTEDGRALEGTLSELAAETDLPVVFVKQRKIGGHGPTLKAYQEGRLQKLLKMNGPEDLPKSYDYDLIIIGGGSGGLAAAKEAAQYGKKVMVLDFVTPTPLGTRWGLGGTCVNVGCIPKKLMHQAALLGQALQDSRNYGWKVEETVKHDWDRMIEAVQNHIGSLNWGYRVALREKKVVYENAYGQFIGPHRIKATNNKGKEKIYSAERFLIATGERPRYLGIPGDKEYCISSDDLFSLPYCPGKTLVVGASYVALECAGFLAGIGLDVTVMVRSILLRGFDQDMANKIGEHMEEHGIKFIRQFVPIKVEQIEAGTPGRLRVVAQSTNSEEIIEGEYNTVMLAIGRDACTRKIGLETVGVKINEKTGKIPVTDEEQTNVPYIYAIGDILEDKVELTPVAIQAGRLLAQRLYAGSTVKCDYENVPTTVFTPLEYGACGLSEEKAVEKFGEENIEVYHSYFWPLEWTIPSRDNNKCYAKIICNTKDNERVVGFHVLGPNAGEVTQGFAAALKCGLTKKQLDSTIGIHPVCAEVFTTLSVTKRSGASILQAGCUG
Sequence of Acetolactate synthase catalytic subunit, mitochondrial (P07342 whole entry): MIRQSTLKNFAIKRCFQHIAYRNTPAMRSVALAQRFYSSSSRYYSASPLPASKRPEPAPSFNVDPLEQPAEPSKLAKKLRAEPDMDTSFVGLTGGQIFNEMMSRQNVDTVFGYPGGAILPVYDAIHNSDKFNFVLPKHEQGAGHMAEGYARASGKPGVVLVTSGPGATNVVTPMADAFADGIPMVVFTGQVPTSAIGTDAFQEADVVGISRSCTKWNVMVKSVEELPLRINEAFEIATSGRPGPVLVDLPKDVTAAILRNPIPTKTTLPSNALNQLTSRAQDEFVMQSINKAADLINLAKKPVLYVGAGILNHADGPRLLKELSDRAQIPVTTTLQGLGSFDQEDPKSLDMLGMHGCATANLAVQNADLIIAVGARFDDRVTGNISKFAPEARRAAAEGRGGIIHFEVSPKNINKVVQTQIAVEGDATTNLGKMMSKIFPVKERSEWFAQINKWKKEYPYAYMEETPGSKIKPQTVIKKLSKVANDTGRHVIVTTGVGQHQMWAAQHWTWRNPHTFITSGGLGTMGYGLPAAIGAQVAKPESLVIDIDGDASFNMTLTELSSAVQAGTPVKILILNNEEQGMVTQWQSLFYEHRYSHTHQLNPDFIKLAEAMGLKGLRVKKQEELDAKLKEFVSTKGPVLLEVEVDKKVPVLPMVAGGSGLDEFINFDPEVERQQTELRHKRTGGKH

SMILES: COc1ccc2c3c4n(c2c1)[C@H](C=C(C)C)OOC(C)(C)C[C@@H]4N1C(=O)[C@@H]2CCCN2C(=O)[C@]1(O)[C@H]3O [VERRUCULOGEN]
- IC50 [1]: 97 µM
- Activity [2]: 0.78 mg/kg
- MIC [3]: 12.2 µM (≈ 6.24 µg/mL)
- Activity [4]: 1 µM
- IC50 [5]: 45 µM
- IC50 [6]: 12.9 µM
- Activity [7]: 1 µM
- IC50 [8]: > 50 µM
- LD50 [9]: 2.4 mg/kg
- selectivity ratio [10]: 7.5

SMILES: CN1C(=O)[C@]23CC4=CC=C[C@H](O)[C@H]4N2C(=O)[C@@]1(CO)SS3 [GLIOTOXIN]
- EC50 [11]: 5.4 µM
- EC50 [12]: 1.65 µM
- IC50 [1]: < 1 µM
- EC50 [13]: 1.35 µM
- EC50 [14]: 0.9 µM
- EC50 [15]: 0.38 µM
- EC50 [16]: 36.9 µM
- IC50 [17]: 10 µM
- IC50 [5]: > 50 µM
- LD50 [18]: 17.9 mg/kg
- IC50 [19]: 0.123 µM
- IC50 [20]: 2.45 µM
- IC50 [21]: 9 µM
- Activity [22]: 30.7 µM
- IC50 [6]: 0.01 µM
- IC50 [8]: 0.5 µM
- IC50 [23]: 3.6 µM
- IC50 [24]: 0.2 µM
- Activity [25]: 0.3 µM
- IC50 [26]: 93 µM
- EC50 [27]: 0.104 µM
- EC50 [28]: 6.47 µM
- IC50 [29]: 50 µM
- EC50 [30]: 9.75 µM
- EC50 [31]: 2 µM
- IC50 [32]: 0.003 µM
- EC50 [33]: 90.1 µM
- Activity [34]: 300 nM

SMILES: Cc1ccc(/C(=N\NC(N)=S)c2cc(C(F)(F)F)cc(C(F)(F)F)c2)cc1 [THIOSEMICARBAZONE STANDARD]
- EC50 [35]: 25 µM
- IC50 [5]: 0.044 µM
- EC50 [6]: 1.3 µM
- IC50 [8]: 15 µM
- selectivity ratio [36]: 19

SMILES: COc1ccc2c3c([nH]c2c1)[C@H](C=C(C)C)N1C[C@@H]2CCCN2C[C@@]1(O)[C@H]3O [CYCLOTRYPROSTATIN A]
- Activity [37]: 66.4%
- IC50 [6]: > 50 µM

SMILES: C/C=C(\C)[C@@H]1C=C[C@@H]2C[C@H](C)C[C@H](C)C2[C@@H]1C(=O)C1=CC(C)(OCCCC)NC1=O (stereo partly specified) [ASCOSALIPYRROLIDINONE A]
- MIC [38]: 30 µg/mL (≈ 72.5 µM)

SMILES: COc1ccc2c(c1)N(C)C(=O)[C@@]21C[C@H]2C(=O)N3CCC[C@H]3C(=O)N2[C@H]1C=C(C)C [N-METHYLSPIROTRYPROSTATIN A]
- IC50 [6]: > 50 µM

SMILES: COc1ccc2c(c1)NC(=O)[C@@]21C=C2C(=O)N3CCC[C@H]3C(=O)N2[C@H]1C=C(C)C [SPIROTRYPROSTATIN B]
- IC50 [1]: 21.1 µM
- IC50 [5]: > 50 µM
- IC50 [6]: 5.7 µM
- IC50 [8]: > 50 µM
- Ratio IC50 [10]: 3.7 ratio

SMILES: CN1C(=O)[C@@]23C[C@]4([C@]56C[C@@]78SS[C@@](CO)(C(=O)N7[C@H]5Nc5ccccc56)N(C)C8=O)c5ccccc5N[C@@H]4N2C(=O)[C@]1(CO)SS3 [CHAETOCIN]
- IC50 [1]: < 0.6 µM
- IC50 [39]: 0.6 µM
- IC50 [5]: > 50 µM
- IC50 [6]: 0.002 µM
- IC50 [8]: > 50 µM
- IC50 [40]: 4.6 µM
- IC50 [32]: < 0.025 µM

SMILES: N#Cc1nc(NCc2ccc(Cl)c(Cl)c2)c2ncn(CCCO)c2n1
- EC50 [35]: 25 µM
- EC50 [6]: 0.11 µM
- selectivity ratio [36]: 227

SMILES: COc1ccc2c(c1)NC(=O)[C@@]21C[C@H]2C(=O)N3CCC[C@H]3C(=O)N2[C@H]1C=C(C)C [SPIROTRYPROSTATIN A]
- IC50 [41]: 110 µM
- IC50 [6]: > 50 µM
- IC50 [42]: > 300 µM

SMILES: CS[C@]1(Cc2c[nH]c3ccccc23)NC(=O)[C@](CO)(SC)N(C)C1=O [CHETOSEMINUDIN B]
- IC50 [1]: 94.9 µM
- IC50 [5]: > 50 µM
- IC50 [6]: 5.9 µM
- IC50 [8]: > 50 µM
- IC50 [43]: 24 µM
- IC50 [29]: 70 µM
- Ratio IC50 [10]: 16.1 ratio

SMILES: CS[C@]1(COC(C)=O)C(=O)N2[C@H]3C(=CC=C[C@@H]3O)C[C@@]2(SC)C(=O)N1C
- IC50 [6]: > 50 µM

SMILES: CS[C@]1(CO)C(=O)N2[C@H]3C(=CC=C[C@@H]3OC(C)=O)C[C@@]2(SC)C(=O)N1C
- IC50 [1]: 125 µM
- IC50 [5]: 12.8 µM
- IC50 [6]: 6.5 µM
- IC50 [8]: > 50 µM
- Ratio IC50 [10]: 19.2 ratio

SMILES: N=C(N)c1ccc(OCCCCCOc2ccc(C(=N)N)cc2)cc1 [PENTAMIDINE]
- IC50 [6]: 0.007 µM

SMILES: Nc1nc(N)nc(Nc2ccc([As]3SCC(CO)S3)cc2)n1 (stereo unspecified) [MELARSOPROL]
- selectivity ratio [44]: 1940
- IC50 [6]: 0.004 µM

SMILES: C/C(=C\Cc1c(O)c(Cl)c(C)c(C=O)c1O)CC/C=C(\C)[C@@H]1CC(=O)C(C)(C)O1 [ASCOFURANONE]
- IC100 [6]: 0.03 µM

SMILES: CS[C@]1(CO)C(=O)N2[C@H]3C(=CC=C[C@@H]3O)C[C@@]2(SC)C(=O)N1C [BIS(DETHIO)BIS(METHYLTHIO)GLIOTOXIN]
- IC50 [1]: 140 µM
- IC50 [5]: > 50 µM
- LD50 [18]: > 500 mg/kg
- IC50 [19]: 1.12 µM
- IC50 [20]: > 2.81 µM
- IC50 [6]: 40.2 µM
- IC50 [8]: > 50 µM
- IC50 [26]: 8.4 µM
- EC50 [27]: > 10 µM
- selectivity ratio [10]: 3.5

SMILES: CS[C@]1(C)NC(=O)[C@](Cc2c[nH]c3ccccc23)(SC)NC1=O [3,6 BISMETHYL(THIOCYCLO)ALANYLTRYPTOPHYL]
- IC50 [6]: > 50 µM

SMILES: CS[C@]1(CO)C(=O)N2c3c(O)cccc3C[C@@]2(SC)C(=O)N1C [DEHYDROBIS(METHYLTHIO)GLIOTOXIN]
- IC50 [1]: 141 µM
- IC50 [5]: 19.5 µM
- IC50 [6]: 8.5 µM
- IC50 [8]: > 50 µM
- IC50 [26]: 16.9 µM
- Ratio IC50 [10]: 16.6 ratio

SMILES: CS[C@]1(COC(C)=O)C(=O)N2[C@H]3C(=CC=C[C@@H]3OC(C)=O)C[C@@]2(SC)C(=O)N1C [DIACETYLBIS(METHYLTHIO)GLIOTOXIN]
- IC50 [1]: 56 µM
- IC50 [5]: > 50 µM
- IC50 [6]: 35.5 µM
- IC50 [8]: > 50 µM
- Ratio IC50 [10]: 1.6 ratio

SMILES: COc1ccc2c(c1)N(C)C(=O)[C@@]21C=C2C(=O)N3CCC[C@H]3C(=O)N2[C@H]1C=C(C)C [N-METHYL-6-METHOXYSPIROTRYPROSTATIN B]
- IC50 [6]: > 50 µM

SMILES: CN1C(=O)[C@]23SS[C@@]1(C)C(=O)N2[C@H]1Nc2ccccc2[C@@]1([C@@]12c4ccccc4N[C@@H]1N1C(=O)[C@]4(CO)SS[C@]1(C(=O)N4C)[C@H]2O)[C@@H]3O [VERTICILLIN B]
- Activity [45]: 109%
- IC50 [1]: < 0.6 µM
- IC50 [5]: > 50 µM
- EC50 ([20]; read-out: ED50 (the source's name)): 0.28 µM
- IC50 [6]: 0.007 µM
- IC50 [8]: > 50 µM
